# Assay results as given in patent US20010019832A1, “Methods for identification using U0126” (priority 2000, published 2001).
# Legend:
# L6 cells [1] = experiment: Glucose uptake rate in L6 cells; assay type: cell-based, rat; conditions: 5 mM glucose; for Glucose uptake rate: U0126 10 μM or PD98059 10 μM for 20 h, insulin 176 nM 1 h before
# Description: (§1) Glucose uptake was determined as described by Hundal et al. (1994) Biochem. J. 297: 289-295. Briefly, after incubation with insulin for one hour, cell monolayers were rinsed with glucose-free PBS. Glucose uptake was quantified by incubating the cells in the presence of 1 μCi/ml ^3H-2-deoxy-glucose in PBS for 8 min. Uptake of 2-deoxy-glucose was terminated by rapidly aspirating the medium, followed by two successive washes of cell monolayers with ice cold PBS. The cells were lysed in 0.5 M NaOH, followed by liquid scintillation counting. Rates of transport were normalized for protein content in each well.
# Glucose uptake rate in L6 cells, in the presence of 5 mM glucose, was determined. The cells were incubated in serum-free medium supplemented with U0126 (10 μM), PD98059 (10 μM) or wortmannin (100 nM) for 20 h. Insulin (176 nM) was added 1 h before the determination of glucose uptake rate. Glucose uptake was determined as described above.
# [2] = tested on: human skeletal muscle cells (hSkMC); experiment: Glucose uptake rate in human skeletal muscle cells; assay type: cell-based; conditions: 5 mM glucose, insulin 176 nM or U0126 10 μM added 30 min before
# Description: as §1
# Glucose uptake rate in human skeletal muscle cells (hSkMC), in the presence of 5 mM glucose, was determined. The cells were incubated in serum-free medium (PromoCell) for 2 h. Insulin (176 nM) or U0126 (10 μM) were added 30 min before determination of glucose uptake rate.
# SH-SY5Y cells = experiment: Glucose uptake rate in SH-SY5Y cells; assay type: cell-based, human; conditions: 5 mM glucose, U0126 10 μM or insulin 176 nM added 1 h before
# Description: as §1
# Glucose uptake rate in SH-SY5Y cells in the presence of 5 mM glucose was determined. The cells were incubated in serum-free medium over night. Approximately 20 h later U0126 (10 μM), wortmannin (100 nM) or insulin (176 nM) were added, 1 h before the determination of glucose uptake rate.
# L6 cells [3] = experiment: Glucose oxidation in L6 cells (14CO2 trapping); assay type: cell-based, rat; conditions: 5 mM glucose; for Glucose oxidation: insulin 176 nM or U0126 10 μM added 1 h before
# From the text: (§2) The principle of the used glucose/free fatty acid, (FFA) oxidation assay is based on the fact that one of the final products along metabolic pathways of these two substrates is carbon dioxide. Since the substrates are uniformly ^14C labeled, the radioactivity in carbon dioxide trap is a direct measure of metabolic activity in studied cells (Rodbell, M. (1964) J. Biol. Chem. 239: 375-380).
# (§3) As further described in International Patent Application No. PCT/SE00/02680, filed Dec. 27, 2000, cells were cultivated until sub-confluence in T-25 Costar flasks. Prior to the experiment, the cells were deprived of serum for 6 hours in DMEM medium containing 5 mM glucose. 3 ml of medium supplemented with (U-^14C)-glucose or (U^14C)-palmitic acid (0.2 μCi/ml) were added to each flask. A filter paper (1.5×5.5 cm) soaked in hyamine solution was rolled up, blotted on a paper towel to remove excess of fluid, and placed carefully into the tube of the device described in International Patent Application No. PCT/SE00/02680. The tube was mounted in the flasks, the screw caps were tightened and cells were incubated at 37° C. for a suitable time period. The reaction was terminated by adding sulfuric acid to the culture medium and the cells were incubated for additional 60 min. The filter paper was removed, cut into small pieces and transferred to scintillation vials. Methanol (0.2 ml) was added to each vial to increase the solubility of hyamine-CO2 in the scintillation fluid. Finally the radioactivity was measured. The remaining cells were washed briefly with ice cold PBS, solubilized with 1 M KOH and the protein content was determined by the Bradford method (Bradford, M. M. (1976) Anal. Biochem. 72: 248-254).
# Glucose oxidation in L6 cells in the presence of 5 mM glucose was determined as described in “Experimental Methods”. One hour prior to determination of glucose oxidation, insulin or U0126 was added to a concentration of 176 nM or 10 μM, respectively.
# L6 cells [4] = experiment: Palmitate oxidation in L6 cells (14CO2 trapping); assay type: cell-based, rat; conditions: for Palmitate oxidation in the presence of 5 mM glucose: data not shown
# From the text: as §2, §3
# In a cell system, insulin resistance can be provoked experimentally by raising the concentrations of glucose, fat or both in the medium, or by treating the cells with the cytokine Tumor Necrosis Factor alpha (TNF alpha) before insulin stimulation. […] Palmitate oxidation was determined as described in “Experimental methods”. […]
# PKB = PKB activity in L6 cells; assay type: cell-based, rat; conditions: differentiated L6 cells, incubated 10 min
# INS-1 cells = conditions: U0126 10 μM, 24 hours
# Description: Insulin secretion in INS-1 cells was determined. INS-1 cells were seeded in 24-well plates. Thirty minutes before assay the glucose concentration was decreased to 2.8 mM. After the incubation in low glucose medium, glucose (up to 16 mM) or U0126 (10 μM) were added. After 24 hours, samples were collected and analyzed in the rat insulin ELISA.
# MEK½ = conditions: Favata et al. 1998; cited from earlier work
# AP-1 = conditions: Duncia et al. 1998; cited from earlier work
Molecule,"Glucose uptake rate, U0126 and insulin incubated together (L6 cells [1]; U0126 10 μM 20 h plus insulin 176 nM 1 h)",Glucose uptake rate (L6 cells [1]),Glucose uptake rate [2],Glucose uptake rate (SH-SY5Y cells),"Glucose oxidation, U0126 and insulin incubated together (L6 cells [3]; U0126 10 μM plus insulin 176 nM)",Glucose oxidation (L6 cells [3]),Palmitate oxidation in the presence of 5 mM glucose (L6 cells [4]),"Palmitate oxidation during insulin resistant conditions (L6 cells [4]; 12 mM glucose and 480 μM palmitate for 20 hours, U0126 10 μM 1 h before)",PKB activity (PKB),Insulin secretion (INS-1 cells),Inhibition of MEK½ (MEK½),Inhibition of AP-1 transactivation (AP-1)
"N#CC(=C(N)Sc1ccccc1N)C(C#N)=C(N)Sc1ccccc1N [U0126, 1,4-diamino-2,3-dicyano-1,4-bis [2-aminophenylthio] butadiene]",no further increase compared to U0126 alone,increased glucose uptake,increase glucose uptake,increased glucose uptake,A small increase,increased glucose oxidation,decreased palmitate oxidation,decreased palmitate oxidation,no effect,increased insulin secretion,specifically inhibits MEK½ in both the inactive and active forms,inhibitor of AP-1 transactivation
insulin: Bovine insulin purchased from Gibco Laboratories,–,increased glucose uptake,increase glucose uptake,increased glucose uptake,–,increased glucose oxidation,decreased palmitate oxidation,–,increased PKB activity three-fold,–,–,–
